Measurements reported in PubChem BioAssay (NCI).
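Dose response: 5 concentrations. Exposure: 48 h. Format: 96-well plates. Endpoint: linear interpolation; highest concentration if not reached. The concentration for 50% growth inhibition is given as GI50. TGI: concentration producing complete growth inhibition.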

How the values were obtained:
Assay in all cases: NCI anticancer screen, dose series, 48 h
SF-268 CNS = tested on: SF-268 CNS
PC-3 prostate = tested on: PC-3 prostate
SNB-19 CNS = tested on: SNB-19 CNS
SF-295 CNS = tested on: SF-295 CNS
COLO 205 colon = tested on: COLO 205 colon
DU-145 prostate = tested on: DU-145 prostate
OVCAR-5 ovarian = tested on: OVCAR-5 ovarian
NCI-H226 lung = tested on: NCI-H226 lung
OVCAR-4 ovarian = tested on: OVCAR-4 ovarian
NCI-H23 lung = tested on: NCI-H23 lung

## O=C1CNCCCN2CCN(CCCNCC(=O)Nc3ccc(cc3)S(=O)(=O)c3ccc(cc3)NC(=O)CNCCCN3CCN(CCCNCC(=O)Nc4ccc(cc4)S(=O)(=O)c4ccc(cc4)N1)CC3)CC2
SF-268 CNS
  TGI: > 55.4 µM
PC-3 prostate
  TGI: > 100 µM
SNB-19 CNS
  TGI: > 100 µM
SF-295 CNS
  TGI: > 62.6 µM
COLO 205 colon
  TGI: 96.9 µM
DU-145 prostate
  TGI: > 100 µM
OVCAR-5 ovarian
  TGI: > 77.2 µM
NCI-H226 lung
  TGI: > 73.6 µM
OVCAR-4 ovarian
  TGI: 97.7 µM
NCI-H23 lung
  TGI: > 76.9 µM

## CCCCC/C(C=C(C#N)C#N)=C/c1ccccc1
SF-268 CNS
  GI50: 2.45 µM
  TGI: 9.51 µM
PC-3 prostate
  GI50: 3.13 µM
  TGI: 12.2 µM
SNB-19 CNS
  GI50: 6.53 µM
  TGI: 21.8 µM
SF-295 CNS
  GI50: 2.76 µM
  TGI: 14.6 µM
COLO 205 colon
  GI50: 4.91 µM
  TGI: 16.3 µM
DU-145 prostate
  GI50: 5.23 µM
  TGI: 24.6 µM
OVCAR-5 ovarian
  GI50: 4.11 µM
  TGI: 10.7 µM
NCI-H226 lung
  GI50: 8.11 µM
  TGI: 25.5 µM
OVCAR-4 ovarian
  GI50: 7.74 µM
  TGI: > 55.8 µM
NCI-H23 lung
  GI50: 3.62 µM
  TGI: 13.6 µM

## Cc1ccc2c(c1)C(=O)/C(=C/c1ncc([N+](=O)[O-])n1C)O2
SF-268 CNS
  GI50: 1.93 µM
  TGI: 5.53 µM
PC-3 prostate
  GI50: 2.35 µM
  TGI: > 24.9 µM
SNB-19 CNS
  GI50: 2.36 µM
  TGI: > 25.6 µM
SF-295 CNS
  GI50: 2.22 µM
  TGI: 7.82 µM
COLO 205 colon
  GI50: 1.99 µM
  TGI: 5.09 µM
DU-145 prostate
  GI50: 2.65 µM
  TGI: 7.63 µM
OVCAR-5 ovarian
  GI50: 2.7 µM
  TGI: > 27 µM
NCI-H226 lung
  GI50: 4.62 µM
  TGI: 17.4 µM
OVCAR-4 ovarian
  GI50: 2.15 µM
  TGI: > 22.7 µM
NCI-H23 lung
  GI50: 2.28 µM
  TGI: 6.56 µM

## COC(=O)c1cc2c3ccccc3[nH]c2c2ncccc12
SF-268 CNS
  GI50: 53.5 µM
  TGI: > 100 µM
PC-3 prostate
  GI50: > 100 µM
  TGI: > 100 µM
SNB-19 CNS
  GI50: 66.5 µM
  TGI: > 100 µM
SF-295 CNS
  GI50: 36.9 µM
  TGI: > 100 µM
COLO 205 colon
  GI50: > 100 µM
  TGI: > 100 µM
DU-145 prostate
  GI50: 47.1 µM
  TGI: > 100 µM
OVCAR-5 ovarian
  GI50: 32.3 µM
  TGI: > 100 µM
NCI-H226 lung
  GI50: > 100 µM
  TGI: > 100 µM
OVCAR-4 ovarian
  GI50: 57.3 µM
  TGI: > 100 µM
NCI-H23 lung
  GI50: 27.2 µM
  TGI: > 100 µM

## Cn1c(N2NC(=O)C(N=Nc3ccc(S(N)(=O)=O)cc3)C2=O)nc(-c2ccco2)c(C#N)c1=O (centres undefined)
SF-268 CNS
  GI50: 15.6 µM
  TGI: > 50 µM
PC-3 prostate
  GI50: 23.2 µM
  TGI: > 50 µM
SNB-19 CNS
  GI50: > 50 µM
  TGI: > 50 µM
SF-295 CNS
  GI50: > 50 µM
  TGI: > 50 µM
COLO 205 colon
  GI50: 3.18 µM
  TGI: 11.8 µM
DU-145 prostate
  GI50: 14.9 µM
  TGI: > 50 µM
OVCAR-5 ovarian
  GI50: > 50 µM
  TGI: > 50 µM
NCI-H226 lung
  GI50: > 50 µM
  TGI: > 50 µM
OVCAR-4 ovarian
  GI50: 8 µM
  TGI: 23.9 µM
NCI-H23 lung
  GI50: 12.8 µM
  TGI: > 50 µM

## Cc1ccc(CS/C(=C\c2ccc([N+](=O)[O-])cc2)C(=O)c2ccc(F)cc2)cc1
SF-268 CNS
  GI50: 4.13 µM
  TGI: 20.7 µM
PC-3 prostate
  GI50: 2.36 µM
  TGI: 6.2 µM
SNB-19 CNS
  GI50: 1.98 µM
  TGI: 4.36 µM
SF-295 CNS
  GI50: 2.25 µM
  TGI: 6.48 µM
COLO 205 colon
  GI50: 3.72 µM
  TGI: 16.6 µM
DU-145 prostate
  GI50: 21.1 µM
  TGI: > 100 µM
OVCAR-5 ovarian
  GI50: 2.6 µM
  TGI: 9.01 µM
NCI-H226 lung
  GI50: 3.17 µM
  TGI: 15 µM
OVCAR-4 ovarian
  GI50: 3.04 µM
  TGI: 13.3 µM
NCI-H23 lung
  GI50: 4.78 µM
  TGI: 41 µM

## CCCCC(=O)OCC1OC(n2cnc3c(=S)nc[nH]c32)C(OC(=O)CCCC)C1OC(=O)CCCC (centres undefined)
SF-268 CNS
  GI50: 3.96 µM
  TGI: > 100 µM
PC-3 prostate
  GI50: 2.21 µM
  TGI: > 100 µM
SNB-19 CNS
  GI50: 17.9 µM
  TGI: > 100 µM
SF-295 CNS
  GI50: 1.54 µM
  TGI: > 26.4 µM
COLO 205 colon
  GI50: 1.37 µM
  TGI: 5.18 µM
DU-145 prostate
  GI50: 0.636 µM
  TGI: > 100 µM
OVCAR-5 ovarian
  GI50: 3.65 µM
  TGI: > 100 µM
NCI-H226 lung
  TGI: > 100 µM
OVCAR-4 ovarian
  GI50: 0.441 µM
  TGI: > 100 µM
NCI-H23 lung
  GI50: 1.36 µM
  TGI: > 100 µM

## O=C1c2cccc(NCCN=Cc3cc(O)ccc3O)c2C(=O)c2c(NCCN=Cc3cc(O)ccc3O)cccc21
SF-268 CNS
  GI50: 0.776 µM
  TGI: 3.25 µM
PC-3 prostate
  GI50: 1.17 µM
  TGI: 3.97 µM
SNB-19 CNS
  GI50: 1.55 µM
  TGI: 5.1 µM
SF-295 CNS
  GI50: 1.36 µM
  TGI: 4.24 µM
COLO 205 colon
  GI50: 0.495 µM
  TGI: 1.94 µM
DU-145 prostate
  GI50: 1.39 µM
  TGI: 5.43 µM
OVCAR-5 ovarian
  GI50: 2.12 µM
  TGI: 5.14 µM
NCI-H226 lung
  GI50: 1.21 µM
  TGI: 3.62 µM
OVCAR-4 ovarian
  GI50: 0.573 µM
  TGI: 2.64 µM
NCI-H23 lung
  GI50: 1.44 µM
  TGI: 3.49 µM

## Cc1nn(CN2CCN(C)CC2)c(=S)n1/N=C/c1cccc2ccccc12
SF-268 CNS
  GI50: 24.5 µM
  TGI: 68.2 µM
PC-3 prostate
  GI50: 22.1 µM
  TGI: 64 µM
SNB-19 CNS
  GI50: 20.3 µM
  TGI: 51.6 µM
SF-295 CNS
  GI50: 24.9 µM
  TGI: 59.5 µM
COLO 205 colon
  GI50: 10.8 µM
  TGI: 26.6 µM
DU-145 prostate
  GI50: 31.7 µM
  TGI: > 100 µM
OVCAR-5 ovarian
  GI50: 19.6 µM
  TGI: 40.4 µM
NCI-H226 lung
  GI50: 17.1 µM
  TGI: 34.9 µM
OVCAR-4 ovarian
  GI50: 2.11 µM
  TGI: 19.4 µM
NCI-H23 lung
  GI50: 21.7 µM
  TGI: 56.2 µM

## Cc1ccc(S(=O)(=O)N(CCOc2ccc(/C(N)=N/Cl)cc2)CCOc2ccc(/C(N)=N\Cl)cc2)cc1
SF-268 CNS
  GI50: 5.76 µM
  TGI: 20 µM
PC-3 prostate
  GI50: 33.7 µM
  TGI: > 100 µM
SNB-19 CNS
  GI50: 5.65 µM
  TGI: > 100 µM
SF-295 CNS
  GI50: 7.71 µM
  TGI: 42.9 µM
COLO 205 colon
  GI50: 11 µM
  TGI: 28.8 µM
DU-145 prostate
  GI50: 16.1 µM
  TGI: 48 µM
OVCAR-5 ovarian
  GI50: > 100 µM
  TGI: > 100 µM
NCI-H226 lung
  GI50: 59.6 µM
  TGI: > 100 µM
OVCAR-4 ovarian
  GI50: 16.7 µM
  TGI: > 100 µM
NCI-H23 lung
  GI50: 12 µM
  TGI: 40.1 µM
